Results taken from publication PMC5996347, “2-Mercapto-Quinazolinones as Inhibitors of Type II NADH Dehydrogenase and Mycobacterium tuberculosis: Structure–Activity Relationships, Mechanism of Action and Absorption, Distribution, Metabolism, and Excretion Characterization” (ACS Infectious Diseases, 2018).
In brackets after ≈: the same amount, converted by molar mass. Where two headings read alike, the source gives them in different places.

Assays:
[1] = biological target: T1, recombinant MBP-MtNdh (MTb NDH-2) (Mycobacterium tuberculosis, UniProt P95160); design: method as in PMID 15767566; conditions: range covering Figure 6 and literature; read-out: IC50 against NDH-2 (text, chlorpromazine); cited from earlier work
T1 construct: The ORF corresponding to Rv1854c was codon optimized for E. coli; made in house; host or cells: E. coli BL21 (DE3) pLysS
T1 sequence (P95160 whole entry): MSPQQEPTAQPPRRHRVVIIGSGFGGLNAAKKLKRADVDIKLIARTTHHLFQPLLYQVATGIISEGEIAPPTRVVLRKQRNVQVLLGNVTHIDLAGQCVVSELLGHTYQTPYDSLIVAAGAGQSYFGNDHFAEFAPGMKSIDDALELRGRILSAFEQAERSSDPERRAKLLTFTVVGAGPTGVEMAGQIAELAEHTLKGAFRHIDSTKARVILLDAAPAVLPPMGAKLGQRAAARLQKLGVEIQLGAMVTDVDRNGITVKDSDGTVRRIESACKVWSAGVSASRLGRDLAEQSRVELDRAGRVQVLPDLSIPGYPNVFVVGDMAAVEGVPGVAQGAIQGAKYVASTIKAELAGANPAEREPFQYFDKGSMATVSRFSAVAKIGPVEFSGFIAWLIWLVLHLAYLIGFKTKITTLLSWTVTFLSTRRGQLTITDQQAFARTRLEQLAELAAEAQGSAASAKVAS

[2] = biological target: T1, recombinant MBP-MtNdh (MTb NDH-2); experiment: Ndh activity assay (NADH oxidation at 340 nm); type: biochemical; conditions: NADH 250 μM, Q2 40 μM; mean ± SD, Figure 6 inset; read-out: IC50 against MBP-MtNdh
[3] = Calculated properties (StarDrop)
M. tuberculosis H37Rv [4] = experiment: microbe, parasite or virus in culture; type: cell-based; conditions: Mycobacterium tuberculosis
piniBAC reporter strain = type: cell-based, Mycobacterium tuberculosis; conditions: upregulation of iniBAC promoter
[5] = tested on: cyd knockout strain (cydC::aph); type: cell-based, Mycobacterium tuberculosis
physchem [6] = type: physicochemical; conditions: for solubility kinetic: water, kinetic from dmso stock
Experimental: The aqueous solubility of the test compounds was measured using laser nephelometry. Compounds were subject to serial dilution from 10 to 0.5 mM in DMSO. An aliquot was then mixed with Milli-Q water to obtain an aqueous dilution plate with a final concentration range of 250–12 μM, with a final DMSO concentration of 2.5%. Triplicate aliquots were transferred to a flat bottomed polystyrene plate which was immediately read on the NEPHELOstar (BMG Lab Technologies). The amount of laser scatter caused by insoluble particulates (relative nephelometry units, RNU) was plotted against compound concentration using a segmental regression fit, with the point of inflection being quoted as the compounds aqueous solubility (μM).

[7] = type: in vitro ADME; conditions: female, CD1, mouse, 0.5 μM, pH 7.4
Experimental: Test compound (0.5 μM) was incubated with female CD1 mouse liver microsomes (Xenotech LLC; 0.5 mg/mL, 50 mM potassium phosphate buffer, pH 7.4), and the reaction started with addition of excess NADPH (8 mg/mL, 50 mM potassium phosphate buffer, pH 7.4). Immediately, at time zero, and then at 3, 6, 9, 15, and 30 min, an aliquot (50 μL) of the incubation mixture was removed and mixed with acetonitrile (100 μL) to stop the reaction. Internal standard was added to all samples; the samples were centrifuged to sediment precipitated protein, and the plates were then sealed prior to UPLC-MS/MS analysis using a Quattro Premier XE (Waters Corporation, USA). XLfit (IDBS, UK) was used to calculate the exponential decay and consequently the rate constant (k) from the ratio of peak area of test compound to internal standard at each time point. The rate of intrinsic clearance (Cli) of each test compound was then calculated using the following calculation. [drawing 1] where V (mL/mg protein) is the incubation volume/mg protein added and microsomal protein yield is taken as 52.5 mg protein/g liver. Verapamil (0.5 μM) was used as a positive control to confirm acceptable assay performance.

M. tuberculosis H37Rv [8] = experiment: H37Rv MIC in GAST medium; type: cell-based, Mycobacterium tuberculosis
physchem [9] = type: physicochemical; conditions: pH 7.4
Experimental: The chromatographic hydrophobicity index (CHI) was determined according the method previously described.[43],[44] Briefly, test compounds were prepared as 0.5 mM solutions in 50:50 acetonitrile/water and analyzed by reversed-phase HPLC-UV (wavelength 254 nm) using a Phenomenex Luna C18 100 Å, 150 × 4.6 mm, 5 μm column with a gradient of aqueous phase (50 mM ammonium acetate (pH 7.4)) and mobile phase (acetonitrile). By plotting the retention time of a set of reference compounds against known CHI values, the CHI value of test compounds was calculated according to their retention time.

M. tuberculosis H37Rv [10] = experiment: Extracellular flux analysis (oxygen consumption rate); conditions: 1 at 39 μM, 7 at 45 μM
in vitro = in vitro ADME; conditions: PAMPA, pH 7.4
Experimental: The permeability was performed using a 96-well precoated BD Gentest PAMPA plate (BD Biosciences, U.K.). Each well was divided into two chambers: donor and acceptor, separated by a lipid-oil-lipid trilayer constructed in a porous filter. The effective permeability, Pe, of the compound was measured at pH 7.4. Stock solutions (5 mM) of the compound were prepared in DMSO. The compound was then further diluted to 10 μM in phosphate buffered saline at pH 7.4. […] The compound dissolved in phosphate buffered saline was then added to the donor side of the membrane, and phosphate buffered saline without compound was added to the acceptor side. The PAMPA plate was left at room temperature for 5 h; after which time, an aliquot (100 μL) was then removed from both acceptor and donor compartments and mixed with acetonitrile (80 μL) containing an internal standard: donepezil at 50 ng/mL). The samples were centrifuged (10 min, 5 °C, 3270g) to sediment precipitated protein and sealed prior to UPLC-MS/MS analysis using a Quattro Premier XE (Waters Corp, USA). Pe was calculated as shown in the below equation. [drawing 2] where CA(t) = peak area of compound present in acceptor well at time (t) = 18 000 s; Cequi = [CD(t) × VD + CA(t) × VA]/(VD + VA); A = filter area; VD = donor well volume; VA = acceptor well volume; t = incubation time; CD(t) = peak area of compound present in donor well at time (t) = 18 000 s. Recovery of compound from donor and acceptor wells was calculated, and data was only accepted when recovery exceeded 70%.

[11] = mouse liver microsomes
HepG2 [12] = experiment: cells; conditions: Homo sapiens, HepG2, read-out: HepG2 IC50
[13] = type: in vitro ADME; conditions: mouse, plasma
Experimental: In brief, a 96-well equilibrium dialysis apparatus was used to determine the free fraction in plasma for each compound (HT Dialysis LLC, Gales Ferry, CT). Membranes (12–14 kDaA cutoff) were conditioned in deionized water for 60 min, followed by conditioning in 80:20 deionized water/ethanol overnight and then rinsed in water and isotonic buffer before use. Mouse plasma from appropriate species was removed from the freezer and allowed to thaw on the day of experiment. Thawed plasma was then centrifuged (Allegra X12-R, Beckman Coulter, USA) and spiked with test compound (final concentration 10 μg/mL), and 150 μL aliquots (n = 3 replicate determinations) were loaded into the 96-well equilibrium dialysis plate. Dialysis against isotonic buffer (150 μL) was carried out for 5 h in a temperature controlled incubator at ca. 37 °C (Barworld scientific Ltd., UK) using an orbital microplate shaker at 100 rpm (Barworld scientific Ltd., UK). At the end of the incubation period, 50 μL aliquots of plasma or buffer were transferred into a 96-well deep plate and the composition in each well was balanced with control fluid (50 μL), such that the volume of buffer to plasma is the same. Sample extraction was performed by the addition of 200 μL of acetonitrile containing an appropriate internal standard. Samples were allowed to mix for 1 min and then centrifuged at 3000 rpm in 96-well blocks for 15 min (Allegra X12-R, Beckman Coulter, USA) after which 150 μL of supernatant was removed to 50 μL of water. All samples were analyzed by UPLC-MS/MS on a Quattro Premier XE Mass Spectrometer (Waters Corporation, USA). The unbound fraction was determined as the ratio of the peak area in buffer to that in plasma.

HepG2 [14] = conditions: human
Mouse pharmacokinetics = type: in vivo, female C57Bl/6 mice; conditions: for AUC(0-t) / Cmax: 10 mg/kg; for AUC: whole blood, single rising oral dose
Experimental: Test compound was dosed as a bolus solution intravenously at 3 mg free base/kg (dose volume: 5 mL/kg; dose vehicle: 10% DMSO; 40% PEG400; 50% saline) to female C57Bl/6 mice (n = 3) or dosed orally by gavage as a suspension at 10 or at 5, 30, or 100 mg free base/kg (dose volume: 10 mL/kg; dose vehicle: 1.0% carboxy methyl cellulose) to female C57Bl/6 mice (n = 3/dose level). Blood samples were taken from each mouse tail vein at predetermined time points postdose, mixed with nine volumes of distilled water, and stored frozen until UPLC-MS/MS analysis. Pharmacokinetic parameters were derived from the blood concentration time curve using PK Solutions software v 2.0 (Summit Research Services, USA).

M. tuberculosis = experiment: microbe, parasite or virus in culture; type: cell-based; conditions: Mycobacterium tuberculosis; read-out: MIC (internal control reference compound)
MTb H37Rv = experiment: Intracellular ATP levels (BacTiter-Glo); conditions: 24 h drug exposure
[15] = Mycobacterium tuberculosis, H37RV, read-out: GAST MIC
[16] = female, C57Bl/6, mouse, in vivo
[17] = female, C57Bl/6, mouse, in vivo, po
[18] = Mycobacterium tuberculosis, H37RV, read-out: GAST MIC in ng/mL

Row | Compound | IC50 [2] | MIC (M. tuberculosis H37Rv [4]; read-out: 7H9-ADC MIC) | solubility kinetic (physchem [6]) | MIC (M. tuberculosis H37Rv [8]; [15]) | chromatographic logD (physchem [9]) | Papp at 5 h, 10 μM (in vitro) | MIC (M. tuberculosis H37Rv [4]; read-out: 7H9-ADC MIC in ng/mL) | IC50 (HepG2 [12]) | Kinetic solubility (physchem [6]) | PPB (% unbound) [13] | AUC(0-t) (Mouse pharmacokinetics; [17]) | Cmax (Mouse pharmacokinetics; [17]) | MIC (M. tuberculosis H37Rv [8]; [18]) | other results
1 | CN(C)CCCN1c2ccccc2Sc2ccc(Cl)cc21 [CPZ, chlorpromazine, reference compound] | 25 ± 2 µM | – | – | – | – | – | – | – | – | – | – | – | – | IC50 [1]: 10 to 25 µM
2 | O=C(CSc1nc2ccccc2c(=O)[nH]1)NCc1ccccc1 [Compound 2] | 0.51 ± 0.05 µM | 4.5 µM | 109 µM (≈ 35.5 µg/mL) | 5.9 µM | 1.5 | – | – | – | – | – | – | – | – | PFI [3]: 4.3; pini-LUC reporter (piniBAC reporter strain): Not likely cell wall inhibitor; Cyd KO reporter [5]: Not likely QcrB inhibitor; Microsomal Cli, mouse [7]: Mouse 1.6 mL/min/g
3 | O=C(CSc1nc2ccccc2c(=O)[nH]1)NC1CCC(F)(F)CC1 [Compound 7, N-(4,4-Difluorocyclohexyl)-2-((4-oxo-3,4-dihydroquinazolin-2-yl)thio)acetamide] | 0.0066 ± 0.004 µM | 0.4 µM | 105 µM (≈ 37.1 µg/mL) | 0.4 µM | 1.5 | 6.4 ×10⁻⁶ cm/s | 141 ng/mL | > 50 µM | 111 (HCl salt) μM | 13 % unbound | 1120 ng·h/mL | 399 ng/mL | 141 ng/mL | Effect on maximal respiration after CCCP uncoupling (M. tuberculosis H37Rv [10]; CCCP 3 μM, compared to untreated control): significantly diminished maximal respiration; Effect on basal MTb OCR (M. tuberculosis H37Rv [10]; ~45 min, glucose or palmitate): minimal effect; Mouse microsomal metabolite identification [11]: a small amount of amide bond cleavage as well as oxidation of the quinazolin-4(3H)-one ring; HepG2 cytotoxicity (in words) (HepG2 [14]): no HepG2 cytotoxicity was observed; Clb (Mouse pharmacokinetics; [16]): 39 mL/min/kg; Vd (Mouse pharmacokinetics; [16]): 1 L/kg; bioavailability (Mouse pharmacokinetics; [16]): 29%; AUC (Mouse pharmacokinetics; female, C57Bl/6, mouse, 5 mg/kg, read-out: AUC at 5 mg/kg oral (converted)): 9430 ng·h/mL; AUC (Mouse pharmacokinetics; female, C57Bl/6, mouse, 30 mg/kg, read-out: AUC at 30 mg/kg oral (converted)): 2190 ng·h/mL; AUC (Mouse pharmacokinetics; female, C57Bl/6, mouse, 100 mg/kg, read-out: AUC at 100 mg/kg oral (converted)): 2200 ng·h/mL; half-life (Mouse pharmacokinetics; female, C57Bl/6, whole blood, C57 mouse PK at 3 iv and 10 po (mg/kg), 1 free base, 7 HCl salt): 1.3 h; Dose linearity (AUC comparison) (Mouse pharmacokinetics; mouse, in vivo, po, 100 mg/kg): no dose linearity was observed; Human microsomal metabolite identification (human liver microsomes): oxidation of the quinazolinone ring; GSH trapping: adducts formed (with and without human liver microsomes): GSH adducts 12 and 13, without microsomal activation
4 | O=C(CSc1nc2ccccc2c(=O)[nH]1)NCC1CCC(F)(F)CC1 [Compound 11, N-((4,4-Difluorocyclohexyl)methyl)-2-((4-oxo-3,4-dihydroquinazolin-2-yl)thio)acetamide] | 0.026 ± 0.006 µM | 1.1 µM | 250 µM (≈ 91.9 µg/mL) | 0.8 µM | 1.6 | 6.5 ×10⁻⁶ cm/s | 294 ng/mL | > 50 µM | >250 µM | 21 % unbound | 2140 ng·h/mL | 1110 ng/mL | 294 ng/mL | MIC (M. tuberculosis H37Rv [8]; read-out: GAST MIC): 0.8 µM
5 | NNC(=O)c1ccncc1 [Isoniazid, isoniazid] | – | – | – | – | – | – | – | – | – | – | – | – | – | MIC (M. tuberculosis): 0.2 µM (≈ 0.0274 µg/mL)
6 | COc1nc2ccc(Br)cc2cc1[C@@H](c1ccccc1)[C@@](O)(CCN(C)C)c1cccc2ccccc12 [bedaquiline] | – | – | – | – | – | – | – | – | – | – | – | – | – | Cellular ATP levels in MTb (MTb H37Rv): depletion of cellular ATP levels
